“Also recorded” adds a separate entry of the source. Read-outs that look alike come from different tables or passages of the source.
How the values were obtained:
[1] = test system: subcutaneous MV4-11 tumors
Procedure: Xenograft was initiated from MV4-11 FLT3-dependent human leukemia cells cultured in Iscove's Modified Dulbecco's medium supplemented with 10% heat-inactivated fetal bovine serum, 100 units/mL penicillin G, 100 μg/mL streptomycin sulfate, 0.25 μg/mL amphotericin B, 2 mM glutamine, 0.075% sodium bicarbonate, and 25 μg/mL gentamicin. Tumor cells were maintained in humidified atmosphere of 95% air and 5% CO2 at 37° C. The cells were harvested during logarithmic phase growth and resuspended at a concentration of 5×10^7 cells/mL in 50% Matrigel matrix (BD Biosciences) and 50% PBS. MV4-11 cells (1×10^7) were implanted subcutaneously into the right flank of each test mouse and the growth of tumors was monitored. Twelve days later, on Day 1 of the study, mice were placed in eight groups each consisting of ten mice with individual tumor sizes of 126 to 221 mm^3 and group mean tumor size of 174 mm^3, tumor volume calculated as a product of width×width×length in mm of an MV4-11 tumor. […] Each dose of drug was given in a volume of 0.2 mL per 20 g of body weight (10 mL/kg) and was adjusted for the body weight of the animal. Each animal was sacrificed when its tumor reached the predetermined endpoint size of 1,000 mm^3 or on the last day of the study (Day 59), whichever came first.
In a follow-on study at the 10 mg/kg oral dose, tumor size was monitored for an additional 60 days after dosing was discontinued.

[2] = Ninety-day toxicity study in rats; format: in vivo, rat
Procedure: (§1) For rats, the compound was administered at a dose of 1, 3, or 10 mg/kg/day.

[3] = Ninety-day toxicity study in dogs; format: in vivo, dog
Procedure: as §1
For dogs, the compound was administered at a dose of 1, 5, or 15 mg/kg/day.

[4] = Phase I clinical trial, safety and tolerability
From the text: (§2) The study was open labeled and designed to determine the safety, tolerability, dose limiting toxicity (DLT), pharmacokinetics and pharmacodynamics of escalating doses. […] If two or more patients in the expanded cohort experiences first course DLT, no further patients will enroll at that dose and the next lower dose level will be declared the maximum tolerated dose (MTD). Primary endpoints for the study are safety, tolerability, dose limiting toxicity (DLT), and PK. Secondary endpoint is PD.

[5] = test system: relapsed or refractory acute myeloid leukemia; conditions: for Efficacy: Human, by comparison with efficacious exposure in mice
From the text: as §2

RS4-11 cell line = conditions: read-out: IC50 (nM), Proliferation, RS 4, 48 hour incubation
[6] = mouse, in vivo, 1 mg/kg
[7] = in vivo
in vivo = conditions: mouse, plasma, oral, 1 mg/kg
clinical = conditions: human, in vivo; for AUC(0-t): SS AUC0-24 (ng * h/mL)
[8] = Mouse oral pharmacokinetics / exposure
[9] = Phase I clinical trial, human oral pharmacokinetics; conditions: in vivo, 12 mg
[10] = follow-on study, 10 mg/kg oral, monitored 60 days after dosing discontinued, ten animals

CC(C)(C)c1cc(NC(=O)Nc2ccc(-c3cn4c(n3)sc3cc(OCCN5CCOCC5)ccc34)cc2)no1 [compound of Formula I, N-(5-tert-butyl-isoxazol-3-yl)-N′-{4-[7-(2-morpholin-4-yl-ethoxy)imidazo[2,1-b][1,3]benzothiazol-2-yl]phenyl}urea]
tumor response ([1]; 1 mg/kg (3 mg/m^2, p.o., QD)): tumor growth inhibition
tumor response ([1]; 3 mg/kg p.o. QD for 28 days): tumor regression
tumor response ([1]; 10 mg/kg p.o. QD for 28 days): tumor regression
Efficacy ([1]; Mouse, 1 mg/kg): Yes
complete responses [1, 10]: eight
partial responses [1, 10]: two
elevations in liver function tests (LFTS) ([2]; high dose (10 mg/kg/day)): 2- to 3 folds
neutropenia ([2]; high dose (very mild anemia)): Sustained neutropenia
clinical signs ([2]; low and middle doses (1, 3 mg/kg/day), 90 days): No significant clinical signs were observed
AUC at 90 days ([2]; rat, in vivo, 10 mg/kg/day, high dose, read-out: AUC at which LFT elevations were produced): ≥ 30 µM·h
half-life ([2]; rat, in vivo, read-out: terminal half-life (converted)): 5.7 h
AUC ([3]; dog, in vivo, 15 mg/kg/day, high dose, read-out: AUC at which LFT elevations were produced): ≥ 30 µM·h
half-life ([3]; dog, in vivo, read-out: terminal half-life (converted)): 5.9 h
weight gain suppression ([3]; high dose): 10%
elevations in liver function tests (LFTS) ([3]; high dose (15 mg/kg/day)): 3 to 6 folds
neutropenia ([3]; high dose (very mild anemia)): Sustained neutropenia
clinical signs ([3]; low and middle doses (1, 5 mg/kg/day), 90 days): No significant clinical signs were observed
deaths ([4]; Cohorts 1 and 2, one unrelated fungal infection, one congestive heart failure possibly drug related): Two
Grade 1 (mild) drug-related adverse events: instance of cough ([4]; human, in vivo): one
Grade 1 (mild) drug-related adverse events: instance of decreased appetite ([4]; human, in vivo): one
Grade 1 (mild) drug-related adverse events: instance of disgeusia ([4]; human, in vivo): one
Grade 1 (mild) drug-related adverse events: instances of abdominal distension/constipation ([4]; human, in vivo): two
Grade 1 (mild) drug-related adverse events: instances of nausea/vomiting ([4]; human, in vivo): two
dose limiting toxicity (DLT) ([4]; human, in vivo): reported as a DLT
grade of other possibly drug-related AEs ([4]; human, in vivo): ≤ 2 grade
hematological toxicity ([4]; human, in vivo): no hematological toxicity was observed
MTD ([4]; up to 450 mg/day, either schedule): has not yet been observed
hematological improvement ([5]; Cohort 2, 18 mg, individual patients): major hematological improvement; also recorded: minor hematological improvement
Efficacy ([5]; 12 mg): Possible
Efficacy ([5]; 18 mg): Possible
patients with hematological improvement ([5]; cohort 2 (18 mg)): three
patients with complete response (CR) ([5]; first 45 pts): Four
responders that were WT ([5]; human, in vivo): five
non-responding patients with ITD mutations with initial rapid clearing of peripheral blasts ([5]; intermittent dosing): Six of the 9
IC50 (RS4-11 cell line): 1000 nM
ΔT [6]: 6 h
duration of steady state exposure ([7]; human): 24 h
plasma exposure versus dose ([7]; human): dose proportional
bioavailability in humans ([7]; human, po, 12 mg): good bioavailability
human bioavailability ([7]; 18 mg): good human bioavailability
AUC (in vivo): ~3.2 µM·h
AUC(0-t) (in vivo): 1790 ng·h/mL
half-life (clinical; 12 mg): ~67.2 h
AUC(0-t) (clinical; 12 mg): 757 ng·h/mL
half-life (clinical; 18 mg): 24 to 67.2 h
AUC(0-t) (clinical; 18 mg): 1380 ng·h/mL
SS Cp ([8]; Mouse, 1 mg/kg): 143 ng/mL
efficacious plasma levels over the MV4;11 IC50 ([8]; mice, efficacious dose 1 mg/kg): about 800 fold
duration of steady state exposure ([8]; mouse): 6 h
Cmax [9]: 11.2 ng/mL

From patent publication US7968543B2 (priority 2007, dated 2011)
